Laboratory results: patent publication US6043252A, “Carboline derivatives” (Icos Corporation, priority 1998, dated 2000)
No end group written: not given here.

Experiments:
[1] = system: Rat aortic smooth muscle cells (RSMC); assay: cGMP level measurements in rat aortic smooth muscle cells stimulated with ANF; type: cell-based; conditions: compound 30 minutes at 37° C., then ANF (100 nM) 10 minutes, dose giving half of the stimulation at saturating concentrations
Method: Rat aortic smooth muscle cells (RSMC), prepared according to Chamley et al., Cell Tissue Res., 177, 503-522 (1977), were used between the 10th and 25th passage at confluence in 24-well culture dishes. Culture media was aspirated and replaced with PBS (0.5 ml) containing the compound tested at the appropriate concentration. After 30 minutes at 37° C., particulates guanylate cyclase was stimulated by addition of ANF (100 nM) for 10 minutes. At the end of incubation, the medium was withdrawn, and two extractions were performed by addition of 65% ethanol (0.25 ml). The two ethanolic extracts were pooled and evaporated until dryness, using a Speed-vac system. CGMP was measured after acetylation by scintillation proximity immunoassay (AMERSHAM). The EC50 values are expressed as the dose-giving half of the stimulation at saturating concentrations.

[2] = system: conscious spontaneously hypertensive rats (SHRs); assay: Hypotensive effect in conscious spontaneously hypertensive rats; type: in vivo, rat; conditions: 5 mg/kg orally in 5% DMF and 95% olive oil, AUC from 0 to 5 hours
Method: The hypotensive effects of compounds according to the invention as identified in Table 2 were studied in conscious spontaneously hypertensive rats (SHRs). The compounds were administered orally at a dose of 5 mg/kg in a mixture of 5% DMF and 95% olive oil. Blood pressure was measured from a catheter inserted in the carotid artery and recorded for five hours after administration. The results are expressed as Area Under the Curve (AUC from 0 to 5 hours, mmhg.hour) of the fall in blood pressure over time.

MED = conditions: clinical; oral, sublingual, intraurethral, i.c. or topical; cited from earlier work
human recombinant PDE5 = human recombinant PDE5 (Homo sapiens, UniProt O76074); assay: Inhibitory effect on cGMP-PDE (one-step PDE5 assay); type: biochemical; conditions: 0.15 μM 8-[H^3 ]-cGMP, 2% DMSO, 30 minutes
Method: CGMP-PDE activity of compounds of the present invention was measured using a one-step assay adapted from Wells et al., Biochim. Biophys. Acta, 384, 430 (1975). The reaction medium contained 50 mM Tris-HCl, pH 7.5, 5 mM magnesium acetate, […] 51-Nucleotidase, 1 mM EGTA, and 0.15 μM 8-[H^3 ]-cGMP. The enzyme used was a human recombinant PDE5 (ICOS Corp., Bothell, Wash.).
Compounds of the invention were dissolved in DMSO finally present at 2% in the assay.

PDE6 = conditions: cited from earlier work

Row | Compound | EC50 [1] [nM] | SHR AUC PO (Area Under the Curve of the fall in blood pressure over time) [2] [mmHG · h] | also measured
1 | CN1CCC[C@H]1COc1ccc(/C=C/C(=O)N2CCc3c([nH]c4ccccc34)[C@H]2c2ccc3c(c2)CCO3)cc1 [Example 156] | < 1000 | 57 | –
2 | CN(C)CCOc1ccc(/C=C/C(=O)N2CCc3c([nH]c4ccccc34)[C@H]2c2ccc3c(c2)CCO3)cc1 [Example 140] | 100 | 105 | –
3 | vasoactive intestinal polypeptide (VIP): vasoactive intestinal polypeptide (VIP) (HSDAVFTDNYTRLRKQMAVKKYLNSILN; ends and bridges not checked; UniProt P01282 125-152, looked up) | – | – | efficacy in MED (MED): active i.c.
4 | O=C(O)c1ccc(/C=C/C(=O)N2CCc3c([nH]c4ccccc34)C2c2ccc3c(c2)OCO3)cc1 (stereo not drawn) [Example 31, (E)-4-[3-Oxo-3-[1-(3,4-methylenedioxyphenyl)-1,3,4,9-tetrahydro-β-carbolin-2-yl]-propenyl]benzoic acid] | 1000 | 86 | IC50 (human recombinant PDE5): 4 nM
5 | CCN(C)CCOc1ccc(/C=C/C(=O)N2CCc3c([nH]c4ccccc34)[C@H]2c2ccc3c(c2)CCO3)cc1 [Example 175, (E)-(R)-1-[1-(2,3-Dihydrobenzofuran-5-yl)-1,3,4,9-tetrahydro-β-carbolin-2-yl]-3-(4-(2-(ethylmethylamino)ethoxy)phenyl)propene-1-one] | – | 52 | –
6 | O=C(/C=C/c1ccc(O)cc1)N1CCc2c([nH]c3ccccc23)[C@H]1c1ccc2c(c1)CCO2 [Example 182, (E)-(R)-1-[1-(2,3-Dihydrobenzofuran-5-yl)-1,3,4,9-tetrahydro-β-carbolin-2-yl]-3-(4-hydroxyphenyl)propene-1-one] | < 1000 | – | –
7 | O=C(/C=C/c1ccc(OCCN2CCCC2)cc1)N1CCc2c([nH]c3ccccc23)C1c1ccc2c(c1)CCO2 (stereo not drawn) [Example 142] | 1500 | 74 | –
8 | O=C(/C=C/c1ccc(OCCN2CCCCC2)cc1)N1CCc2c([nH]c3ccccc23)[C@H]1c1ccc2c(c1)CCO2 [Example 188, (E)-(R)-1-[1-(2,3-Dihydrobenzofuran-5-yl)-1,3,4,9-tetrahydro-β-carbolin-2-yl]-3-(4-(2-piperidin-1-ylethoxy)phenyl)propene-1-one] | < 1000 | 86 | –
9 | CN(C)CCNc1ccc(/C=C/C(=O)N2CCc3c([nH]c4ccccc34)[C@H]2c2ccc3c(c2)CCO3)cc1 [Example 180] | 3500 | – | –
10 | CCCCC[C@H](O)/C=C/[C@H]1[C@H](O)CC(=O)[C@@H]1CCCCCCC(=O)O [alprostadil] | – | – | efficacy in MED (MED): not effective in all patients
11 | CN(C)C[C@@H](O)COc1ccc(/C=C/C(=O)N2CCc3c([nH]c4ccccc34)C2c2ccc3c(c2)CCO3)cc1 (stereo partly drawn) [Example 177, (E)-(R)-1-[1-(2,3-Dihydrobenzofuran-5-yl)-1,3,4,9-tetrahydro-β-carbolin-2-yl]-3-(4-(3-dimethylamino-2-hydroxypropoxy)phenyl)propene-1-one] | < 1000 | 100 | –
12 | CNCc1ccc(/C=C/C(=O)N2CCc3c([nH]c4ccccc34)[C@H]2c2ccc3c(c2)CCO3)cc1 [Example 184] | 3000 | – | –
13 | CCN(CC)CCOc1ccc(/C=C/C(=O)N2CCc3c([nH]c4ccccc34)[C@H]2c2ccc3c(c2)CCO3)cc1 [Example 164] | 1500 | – | –
14 | CN(C)CCOc1ccc(/C=C/C(=O)N2CCc3c([nH]c4ccccc34)C2c2ccc3c(c2)CCO3)cc1 (stereo not drawn) [Example 122] | – | 76 | –
15 | Cc1ccc(N(CC2=NCCN2)c2cccc(O)c2)cc1 [phentolamine] | – | – | efficacy in MED (MED): neither compound has demonstrated efficacy across a broad range of subjects
16 | CN1CCN(c2ccc(/C=C/C(=O)N3CCc4c([nH]c5ccccc45)[C@H]3c3ccc4c(c3)CCO4)cc2)CC1 [Example 183] | 2000 | – | –
17 | CN1CCc2cccc3c2[C@H]1Cc1ccc(O)c(O)c1-3 [apomorphine] | – | – | efficacy in MED (MED): neither compound has demonstrated efficacy across a broad range of subjects
18 | O=C(/C=C/c1ccccc1)N1CCc2c([nH]c3ccccc23)C1c1ccc2c(c1)CCO2 (stereo not drawn) [Example 112, (E)-1-[1-(2,3-Dihydrobenzofuran-5-yl)-1,3,4,9-tetrahydro-β-carbolin-2-yl]-3-phenylpropene-1-one] | – | 71 | –
19 | O=C(/C=C/c1ccc([N+](=O)[O-])cc1)N1CCc2c([nH]c3ccccc23)C1c1ccc2c(c1)OCO2 (stereo not drawn) [Example 26, (E)-1-[1-(3,4-Methylenedioxyphenyl)-1,3,4,9-tetrahydro-β-carbolin-2-yl]-3-(4-nitrophenyl)propene-1-one] | – | 102 | –
20 | CCCc1nn(C)c2c(=O)[nH]c(-c3cc(S(=O)(=O)N4CCN(C)CC4)ccc3OCC)nc12 [sildenafil] | – | – | efficacy in MED (MED): has shown efficacy in oral administration clinical trials for MED; selectivity with respect to PDE6 (PDE6): little selectivity with respect to PDE6
21 | NCCOc1ccc(/C=C/C(=O)N2CCc3c([nH]c4ccccc34)[C@H]2c2ccc3c(c2)CCO3)cc1 [Example 181, (E)-(R)-1-[1-(2,3-Dihydrobenzofuran-5-yl)-1,3,4,9-tetrahydro-β-carbolin-2-yl]-3-(4-(2-aminoethoxy)phenyl)propene-1-one] | 2000 | 77 | –
22 | CC(C)C(=O)Nc1ccc(/C=C/C(=O)N2CCc3c([nH]c4ccccc34)C2c2ccc3c(c2)OCO3)cc1 (stereo not drawn) [Example 55, (E)-N-[4-[3-Oxo-3-(1-(3,4-methylenedioxyphenyl)-1,3,4,9-tetrahydro-β-carbolin-2-yl)propenyl]phenyl]isobutyramide] | 400 | 97 | IC50 (human recombinant PDE5): 40 nM
23 | CNCCOc1ccc(/C=C/C(=O)N2CCc3c([nH]c4ccccc34)[C@H]2c2ccc3c(c2)CCO3)cc1 [Example 191, (E)-(R)-1-[1-(2,3-Dihydrobenzofuran-5-yl)-1,3,4,9-tetrahydro-carbolin-2-yl]-3-[4-(2-methylaminoethoxy)phenyl]propene-1-one] | < 1000 | 84 | –
24 | CC(=O)Nc1ccc(/C=C/C(=O)N2CCc3c([nH]c4ccccc34)C2c2ccc3c(c2)OCO3)cc1 (stereo not drawn) [Example 14, (E)-N-[4-[3-Oxo-3-(1-(3,4-methylenedioxyphenyl)-1,3,4,9-tetrahydro-β-carbolin-2-yl)propenyl]phenyl]acetamide] | 450 | 128 | IC50 (human recombinant PDE5): 5 nM
25 | CN(C)CCOc1ccc(/C=C/C(=O)N2CCc3c([nH]c4ccccc34)C2c2ccc3c(c2)OCO3)cc1 (stereo not drawn) [Example 61, (E)-1-[1-(3,4-Methylenedioxyphenyl)-1,3,4,9-tetrahydro-β-carbolin-2-yl]-3-[4-(2-dimethylaminoethoxy)phenyl]propene-1-one] | 1800 | 95 | IC50 (human recombinant PDE5): 20 nM
26 | Nc1ccc(/C=C/C(=O)N2CCc3c([nH]c4ccccc34)C2c2ccc3c(c2)OCO3)cc1 (stereo not drawn) [Example 25, (E)-1-[1-(3,4-Methylenedioxyphenyl)-1,3,4,9-tetrahydro-β-carbolin-2-yl]-3-(4-aminophenyl)propene-1-one] | 300 | 72 | IC50 (human recombinant PDE5): 72 nM
27 | COC(=O)c1ccc(/C=C/C(=O)N2CCc3c([nH]c4ccccc34)C2c2ccc3c(c2)OCO3)cc1 (stereo not drawn) [Example 28, (E)-4-[3-Oxo-3-[1-(3,4-methylenedioxyphenyl)-1,3,4,9-tetrahydro-β-carbolin-2-yl]-propenyl]benzoic Acid, Methyl Ester] | 300 | 114 | IC50 (human recombinant PDE5): 55 nM
28 | CC(COc1ccc(/C=C/C(=O)N2CCc3c([nH]c4ccccc34)[C@H]2c2ccc3c(c2)CCO3)cc1)N(C)C (stereo partly drawn) [Example 165] | < 1000 | – | –
